Reference: PubChem BioAssay (NCI)
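Briefly, cells in 96-well plates were exposed to five compound concentrations for 48 h, and endpoints were estimated by linear interpolation. GI50 marks 50% less growth. TGI denotes the concentration required for complete inhibition of growth.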

Columns and labels:
Test in all cases: NCI-60 cell line screen, 48 h
OVCAR-4 ovarian = tested on: OVCAR-4 ovarian
MDA-MB-435 = tested on: MDA-MB-435
SK-MEL-5 melanoma = tested on: SK-MEL-5 melanoma
A549 NSCLC = tested on: A549 NSCLC
MDA-MB-231 breast = tested on: MDA-MB-231 breast
SK-OV-3 ovarian = tested on: SK-OV-3 ovarian
HT29 colon = tested on: HT29 colon
HS 578T breast = tested on: HS 578T breast
UO-31 renal = tested on: UO-31 renal
HCC-2998 colon = tested on: HCC-2998 colon
MALME-3M melanoma = tested on: MALME-3M melanoma
786-0 renal = tested on: 786-0 renal
SNB-75 CNS = tested on: SNB-75 CNS
HL-60(TB) leukemia = tested on: HL-60(TB) leukemia
RXF 393 renal = tested on: RXF 393 renal
SF-268 CNS = tested on: SF-268 CNS
SN12C renal = tested on: SN12C renal
UACC-257 melanoma = tested on: UACC-257 melanoma
HOP-62 NSCLC = tested on: HOP-62 NSCLC
SK-MEL-2 melanoma = tested on: SK-MEL-2 melanoma
SNB-19 CNS = tested on: SNB-19 CNS
OVCAR-5 ovarian = tested on: OVCAR-5 ovarian
DU-145 prostate = tested on: DU-145 prostate
T-47D breast = tested on: T-47D breast
HOP-92 NSCLC = tested on: HOP-92 NSCLC
SR leukemia = tested on: SR leukemia
CCRF-CEM leukemia = tested on: CCRF-CEM leukemia
NCI-H23 lung = tested on: NCI-H23 lung
IGROV1 ovarian = tested on: IGROV1 ovarian
MOLT-4 leukemia = tested on: MOLT-4 leukemia
MCF7 breast = tested on: MCF7 breast
NCI-H226 lung = tested on: NCI-H226 lung
ACHN renal = tested on: ACHN renal
KM12 colon = tested on: KM12 colon
SK-MEL-28 melanoma = tested on: SK-MEL-28 melanoma
UACC-62 melanoma = tested on: UACC-62 melanoma
COLO 205 colon = tested on: COLO 205 colon
BT-549 breast = tested on: BT-549 breast
OVCAR-8 ovarian = tested on: OVCAR-8 ovarian
OVCAR-3 ovarian = tested on: OVCAR-3 ovarian
PC-3 prostate = tested on: PC-3 prostate
NCI-H522 lung = tested on: NCI-H522 lung
K-562 leukemia = tested on: K-562 leukemia
HCT-116 colon = tested on: HCT-116 colon
RPMI-8226 leukemia = tested on: RPMI-8226 leukemia
LOX IMVI melanoma = tested on: LOX IMVI melanoma
CAKI-1 renal = tested on: CAKI-1 renal
SW-620 colon = tested on: SW-620 colon
HCT-15 colon = tested on: HCT-15 colon
A498 renal = tested on: A498 renal
NCI/ADR-RES ovarian = tested on: NCI/ADR-RES ovarian
NCI-H460 lung = tested on: NCI-H460 lung
U251 CNS = tested on: U251 CNS
TK-10 renal = tested on: TK-10 renal
SF-295 CNS = tested on: SF-295 CNS
M14 melanoma = tested on: M14 melanoma
EKVX NSCLC = tested on: EKVX NSCLC
SF-539 CNS = tested on: SF-539 CNS

SMILES: O=C(c1cccs1)c1c(C(F)(F)F)n([O-])c2ccc(Cl)cc2[n+]1=O
- GI50 (OVCAR-4 ovarian): 2610 nM
- TGI (OVCAR-4 ovarian): > 50000 nM
- GI50 (MDA-MB-435): 289 nM
- TGI (MDA-MB-435): 2020 nM
- GI50 (SK-MEL-5 melanoma): 541 nM
- TGI (SK-MEL-5 melanoma): 2540 nM
- GI50 (A549 NSCLC): 168 nM
- TGI (A549 NSCLC): 730 nM
- GI50 (MDA-MB-231 breast): 124 nM
- TGI (MDA-MB-231 breast): 431 nM
- GI50 (SK-OV-3 ovarian): 7810 nM
- TGI (SK-OV-3 ovarian): 20100 nM
- GI50 (HT29 colon): 1290 nM
- TGI (HT29 colon): > 50000 nM
- GI50 (HS 578T breast): 11400 nM
- TGI (HS 578T breast): > 34000 nM
- GI50 (UO-31 renal): 185 nM
- TGI (UO-31 renal): 745 nM
- GI50 (HCC-2998 colon): 735 nM
- TGI (HCC-2998 colon): 1430 nM
- GI50 (MALME-3M melanoma): 6360 nM
- TGI (MALME-3M melanoma): 13900 nM
- GI50 (786-0 renal): 36.2 nM
- TGI (786-0 renal): 69 nM
- GI50 (SNB-75 CNS): 2760 nM
- TGI (SNB-75 CNS): > 50000 nM
- GI50 (HL-60(TB) leukemia): 152 nM
- TGI (HL-60(TB) leukemia): 1510 nM
- GI50 (RXF 393 renal): 2090 nM
- TGI (RXF 393 renal): 11700 nM
- GI50 (SF-268 CNS): 434 nM
- TGI (SF-268 CNS): 1360 nM
- GI50 (SN12C renal): 175 nM
- TGI (SN12C renal): 572 nM
- GI50 (UACC-257 melanoma): 614 nM
- TGI (UACC-257 melanoma): 3360 nM
- GI50 (HOP-62 NSCLC): 64.9 nM
- TGI (HOP-62 NSCLC): 146 nM
- GI50 (SK-MEL-2 melanoma): 912 nM
- TGI (SK-MEL-2 melanoma): > 20800 nM
- GI50 (SNB-19 CNS): 1210 nM
- TGI (SNB-19 CNS): > 14800 nM
- GI50 (OVCAR-5 ovarian): 2020 nM
- TGI (OVCAR-5 ovarian): 9680 nM
- GI50 (DU-145 prostate): 311 nM
- TGI (DU-145 prostate): 547 nM
- GI50 (T-47D breast): 505 nM
- GI50 (HOP-92 NSCLC): 866 nM
- TGI (HOP-92 NSCLC): 5680 nM
- GI50 (SR leukemia): 154 nM
- TGI (SR leukemia): 621 nM
- GI50 (CCRF-CEM leukemia): 93.3 nM
- GI50 (NCI-H23 lung): 454 nM
- TGI (NCI-H23 lung): 2260 nM
- GI50 (IGROV1 ovarian): 56.3 nM
- TGI (IGROV1 ovarian): 1650 nM
- GI50 (MOLT-4 leukemia): 28.9 nM
- TGI (MOLT-4 leukemia): 340 nM
- GI50 (MCF7 breast): 94.2 nM
- TGI (MCF7 breast): 2480 nM
- GI50 (NCI-H226 lung): 398 nM
- TGI (NCI-H226 lung): 2360 nM
- GI50 (ACHN renal): 16.7 nM
- TGI (ACHN renal): 44.2 nM
- GI50 (KM12 colon): 111 nM
- TGI (KM12 colon): 302 nM
- GI50 (SK-MEL-28 melanoma): 9460 nM
- TGI (SK-MEL-28 melanoma): > 50000 nM
- GI50 (UACC-62 melanoma): 212 nM
- TGI (UACC-62 melanoma): 562 nM
- GI50 (COLO 205 colon): 569 nM
- TGI (COLO 205 colon): 10200 nM
- GI50 (BT-549 breast): 289 nM
- TGI (BT-549 breast): 655 nM
- GI50 (OVCAR-8 ovarian): 1260 nM
- TGI (OVCAR-8 ovarian): > 20900 nM
- GI50 (OVCAR-3 ovarian): 461 nM
- TGI (OVCAR-3 ovarian): 2850 nM
- GI50 (PC-3 prostate): 97.2 nM
- TGI (PC-3 prostate): 339 nM
- GI50 (NCI-H522 lung): 406 nM
- TGI (NCI-H522 lung): 6070 nM
- GI50 (K-562 leukemia): 115 nM
- TGI (K-562 leukemia): 2620 nM
- GI50 (HCT-116 colon): 46.5 nM
- TGI (HCT-116 colon): 723 nM
- GI50 (RPMI-8226 leukemia): 5 nM
- TGI (RPMI-8226 leukemia): 16.3 nM
- GI50 (LOX IMVI melanoma): 65.3 nM
- TGI (LOX IMVI melanoma): 131 nM
- GI50 (CAKI-1 renal): 128 nM
- TGI (CAKI-1 renal): 671 nM
- GI50 (SW-620 colon): 248 nM
- TGI (SW-620 colon): 4680 nM
- GI50 (HCT-15 colon): 109 nM
- TGI (HCT-15 colon): 359 nM
- GI50 (A498 renal): 10800 nM
- TGI (A498 renal): 18500 nM
- GI50 (NCI/ADR-RES ovarian): 1750 nM
- TGI (NCI/ADR-RES ovarian): 6240 nM
- GI50 (NCI-H460 lung): 359 nM
- TGI (NCI-H460 lung): > 24900 nM
- GI50 (U251 CNS): 130 nM
- TGI (U251 CNS): 586 nM
- GI50 (TK-10 renal): 106 nM
- TGI (TK-10 renal): 333 nM
- GI50 (SF-295 CNS): 149 nM
- TGI (SF-295 CNS): 703 nM
- GI50 (M14 melanoma): 322 nM
- TGI (M14 melanoma): 1090 nM
- GI50 (EKVX NSCLC): 185 nM
- TGI (EKVX NSCLC): 523 nM
- GI50 (SF-539 CNS): 282 nM
- TGI (SF-539 CNS): 568 nM
